Among the test systems are HCT-15 colon; MOLT-4 leukemia; NCI-H23 lung; MALME-3M melanoma; OVCAR-4 ovarian; ACHN renal; HOP-92 NSCLC; 786-0 renal; OVCAR-8 ovarian; K-562 leukemia.
Holding throughout (test): inhibition of tumour cell growth, NCI panel, 48 h

Where “and” joins values, the source holds several entries; their conditions need not be identical. Identical values can stand only once.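 Protocol summary: plate cells (96-well), add compound at 5 concentrations, incubate 48 h, interpolate endpoints linearly. GI50 = concentration required for 50% inhibition of growth. TGI denotes the concentration required for complete inhibition of growth.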

For the compound `CCCCCCCC/C=C/CCCCCCCCC1=NCCN1CCO`, the GI50 is 2.42 µM with HCT-15 colon; 2.1 µM in the assay on MOLT-4 leukemia; 10.9 µM in the assay on NCI-H23 lung; 5.08 µM with MALME-3M melanoma; 7 µM in the assay with OVCAR-4 ovarian; 2.6 µM in the assay with ACHN renal. Also, the GI50 in the assay on HOP-92 NSCLC is 0.976 µM; in the assay on 786-0 renal it was 5.49 µM; with OVCAR-8 ovarian, 3.88 µM. Moreover, the TGI with HCT-15 colon was 7.58 µM; with MOLT-4 leukemia, 4.73 µM; in the assay with NCI-H23 lung it was 28.3 µM; with MALME-3M melanoma it was 17.3 µM; in the assay on OVCAR-4 ovarian, 30.7 µM; with ACHN renal it was 8.39 µM. Besides, the TGI in the assay with HOP-92 NSCLC was determined as 3.4 µM; in the assay with 786-0 renal, 28 µM; with OVCAR-8 ovarian, 21.7 µM.

Regarding `CC1/C=C/C=C/C=C/C=C/C=C/C=C/C=C/C(O[C@@H]2O[C@H](C)[C@H](O)[C@@H](O)[C@@H]2N)CC(O)C(C(=O)O)C(O)CC(=O)CC(O)CC(O)CC(O)CC(=O)CCCC(=O)CC(=O)OC1C(C)CC(C)C(O)CC(=O)c1ccc(N)cc1` (stereo partly specified), the GI50 in the assay on MOLT-4 leukemia is 0.0679 µM and 0.172 µM; in the assay with NCI-H23 lung, 0.055 µM and 0.187 µM; in the assay with MALME-3M melanoma, 0.0543 µM and 0.177 µM; in the assay on OVCAR-4 ovarian, 0.0693 µM and 0.246 µM; in the assay with ACHN renal, 0.057 µM and 0.18 µM; with HOP-92 NSCLC, 0.184 µM. Besides, the GI50 in the assay on K-562 leukemia is 0.0716 µM; in the assay on 786-0 renal, 0.0591 µM and 0.172 µM; in the assay with OVCAR-8 ovarian, 0.0701 µM and 0.347 µM. The TGI with MOLT-4 leukemia was 0.143 µM and 0.402 µM; with NCI-H23 lung, 0.102 µM and 0.371 µM; in the assay with MALME-3M melanoma, 0.104 µM and 0.365 µM; with OVCAR-4 ovarian, 0.154 µM and 0.697 µM; with ACHN renal, 0.106 µM and 0.319 µM; in the assay with HOP-92 NSCLC, 0.537 µM. The TGI was 0.175 µM with K-562 leukemia; 0.111 µM and 0.346 µM in the assay on 786-0 renal; 0.152 µM and 1.23 µM in the assay with OVCAR-8 ovarian.

In the case of `Cc1ccc(NC(=O)c2cccc([N+](=O)[O-])c2O)c([N+](=O)[O-])c1`, the TGI in the assay with HCT-15 colon is 31.8 µM; with NCI-H23 lung it was 27.6 µM; in the assay with MALME-3M melanoma, 30.8 µM; with OVCAR-4 ovarian it was 27 µM; with ACHN renal, 58.1 µM; with HOP-92 NSCLC, 45.4 µM. The TGI in the assay with K-562 leukemia was above 100 µM; in the assay on 786-0 renal, 37 µM; with OVCAR-8 ovarian it was 30.1 µM.

For the compound `CN(C)c1ccc(N=Cc2c([O-])ccc3ccccc23)cc1.[C-]#[O+].[C-]#[O+].[Ir]`, the GI50 with MOLT-4 leukemia was 15.4 µM; with NCI-H23 lung it was 15.3 µM; in the assay with MALME-3M melanoma it was 20.7 µM; in the assay on OVCAR-4 ovarian, 12.2 µM; in the assay on ACHN renal, 18.8 µM; in the assay on HOP-92 NSCLC it was 17.2 µM. Besides, the results for the GI50 in the assay with K-562 leukemia, in the assay with 786-0 renal and in the assay with OVCAR-8 ovarian were 37 µM, 25.1 µM and 28.8 µM, respectively. The TGI was determined as 95 µM with MOLT-4 leukemia; 36.8 µM in the assay with NCI-H23 lung; 41.7 µM with MALME-3M melanoma; 26.1 µM in the assay on OVCAR-4 ovarian; 43.7 µM with ACHN renal; 37.3 µM with HOP-92 NSCLC. Besides, the values for the TGI in the assay on K-562 leukemia, in the assay with 786-0 renal and in the assay with OVCAR-8 ovarian were above 100 µM, 65.1 µM and above 100 µM, respectively.

With `CN(C)c1ccc(C(=C2C=CC(=[N+](C)C)C=C2)c2ccc(N(C)C)cc2)cc1` (tested in a mixture with another compound), the GI50 with HCT-15 colon was 0.294 µM; in the assay on MOLT-4 leukemia it was 0.293 µM; with MALME-3M melanoma, 0.127 µM; in the assay on OVCAR-4 ovarian it was 0.183 µM; in the assay on ACHN renal, 0.233 µM; in the assay on K-562 leukemia it was 0.047 µM. Besides, the GI50 in the assay with 786-0 renal was 0.104 µM. For the same compound, the TGI with HCT-15 colon is 1.41 µM; in the assay on MOLT-4 leukemia, 5.67 µM; in the assay with MALME-3M melanoma, 0.56 µM; in the assay with OVCAR-4 ovarian, 1.32 µM; with ACHN renal, 1.48 µM; in the assay on HOP-92 NSCLC it was 0.714 µM. Also, the TGI in the assay on K-562 leukemia is 2.86 µM; in the assay with 786-0 renal, 1.02 µM.

Consider `COc1ccc2oc3c4c2c1CCC4CCC3=O` (stereo unspecified), for which the TGI in the assay on MOLT-4 leukemia, in the assay with NCI-H23 lung, in the assay with MALME-3M melanoma, in the assay on OVCAR-4 ovarian, in the assay with ACHN renal and in the assay on HOP-92 NSCLC was above 100 µM each time. Also, the TGI in the assay with K-562 leukemia, with 786-0 renal and in the assay on OVCAR-8 ovarian was above 100 µM in each case.

For `COc1cc2c(cc1OCCOS(C)(=O)=O)N=C[C@@H]1CCCN1C2=O`, the GI50 is 16.5 µM with HCT-15 colon; 12.2 µM with NCI-H23 lung; 13.6 µM with MALME-3M melanoma; 16 µM in the assay on ACHN renal; 17 µM with 786-0 renal. For the same compound, the TGI with HCT-15 colon stood at 31.1 µM; in the assay on MOLT-4 leukemia, 65.8 µM; in the assay with NCI-H23 lung, 25.2 µM; in the assay with MALME-3M melanoma, 31.6 µM; in the assay on OVCAR-4 ovarian, 58.5 µM; in the assay on ACHN renal, 29.5 µM. Also, the results for the TGI with HOP-92 NSCLC, in the assay on 786-0 renal and in the assay on OVCAR-8 ovarian were 50.6 µM, 30.7 µM and above 100 µM, respectively.

For `CCOC(=O)N1CCc2cc(OC)c(OC)c3c2C1CC3=O` (stereo unspecified), the TGI in the assay on HCT-15 colon, with MOLT-4 leukemia, in the assay with MALME-3M melanoma, in the assay with OVCAR-4 ovarian, in the assay with ACHN renal and in the assay on HOP-92 NSCLC was above 100 µM in each case. For the same compound, the TGI in the assay on K-562 leukemia, in the assay on 786-0 renal and with OVCAR-8 ovarian was above 100 µM throughout.

As to `CN1C2(c3ccccc3)c3c(-c4ccccc4)sc(-c4ccccc4)c3C1(c1ccccc1)C1C(=O)N(c3ccccc3)C(=O)C12` (stereo unspecified), the TGI in the assay on NCI-H23 lung, in the assay with MALME-3M melanoma, in the assay on OVCAR-4 ovarian, with ACHN renal, in the assay with HOP-92 NSCLC and with K-562 leukemia was above 100 µM in each case. In addition, the TGI in the assay on 786-0 renal and with OVCAR-8 ovarian was above 100 µM in each case.

For the compound `COc1ccc(C(O)/C(=N\NC(N)=S)c2nc3ccc([N+](=O)[O-])cc3[nH]c2=O)cc1OC` (stereo unspecified), the TGI in the assay with MOLT-4 leukemia, in the assay on NCI-H23 lung, in the assay with MALME-3M melanoma, in the assay on OVCAR-4 ovarian, in the assay with ACHN renal and with HOP-92 NSCLC was above 100 µM throughout. Besides, the TGI in the assay with K-562 leukemia, with 786-0 renal and with OVCAR-8 ovarian was above 100 µM in each case.

On to `COC1(OC)CC2C=C(S(=O)(=O)c3ccccc3)C1N(Cc1ccccc1)C2=O` (stereo unspecified), for which the TGI in the assay on MOLT-4 leukemia is above 100 µM; in the assay on NCI-H23 lung it was 40.5 µM; in the assay on MALME-3M melanoma it was above 100 µM; in the assay on OVCAR-4 ovarian, above 100 µM; with ACHN renal, above 100 µM; in the assay on HOP-92 NSCLC, 95.5 µM. For the same compound, the TGI with K-562 leukemia is above 100 µM; in the assay with 786-0 renal, above 100 µM; in the assay with OVCAR-8 ovarian it was 64.7 µM.

Source of the values: PubChem BioAssay (NCI).
